{"source": "patent US20040097467A1", "about": "(priority 2002, published 2004)", "key": {"rabbits": {"test_system": "rabbits", "details": "injection or ingestion; cited from earlier work"}, "[1]": {"test_system": "Aortic Rings of Male JCR: LA-cp Rats", "test": "Contractile response of aortic rings to phenylephrine", "format": "in vivo, rat", "details": "for Slope: logistic curve fit, phenylephrine contraction, treated cp/cp rats; for Maximum contraction: phenylephrine, aortic rings from treated cp/cp rats, mean +/− SEM", "source_text": "(§1) The JCR:LA-cp rat is known to spontaneously develop the range of dysfunction and pathophysiology associated with Metabolic Syndrome in humans, e.g., obesity, profound insulin resistance, atherosclerosis with enhanced vascular contractility, and reduced vascular relaxation. In addition, obese male rats spontaneously develop ischemic lesions of the heart and are prone to stress-induced myocardial infarcts that can be fatal. Insulin resistance develops rapidly in young rats between the ages of 4 and 7 weeks and is highly correlated with the cardiovascular disease. […] Consistent with this observation is the presence of glomerular sclerosis in the older rats.\n(§2) Male JCR: LA-cp rats are maintained on a reversed light cycle at 3 or 7 weeks of age and acclimatized over a 1-week period. This allows metabolic studies to be conducted under subdued light, during the active (dark) phase of their diurnal cycle.\n(§3) The rats are divided into four groups and receive one of the three aforementioned feed concentrations or unsupplemented feed. The dosage is maintained on either a mg/kg body weight basis, in which case the diet is formulated on a weekly basis to ensure each rat receives the intended dose on a mg/kg basis, or the specified concentration in the feed. Food consumption and body weights are measured twice weekly.\n(§4) At 13 weeks of age, rats in the fed state are sacrificed under anesthesia with halothane in oxygen, and the following tissues are removed for processing as described below:\n(§5) 1. Thoracic aorta for vascular function studies;\n(§6) The following parameters are measured: Food intake and body weights, ulin response (through a meal tolerance test), plasma total lipid profile, ratio n to creatinine, plasma levels of leptin, C-reactive protein and tumor necrosis TNFα), vascular function studies on aortic rings (contractility/relaxation), levels and activity of peroxisome proliferator-activated receptors (PPARs), osition of plasma cholesterol esters, liver, pancreas, muscle and adipose phatidylinositol-3 (PI-3) Kinase Signaling. Histological analysis are obtained sclerosis; islet morphometry; liver-hepatic damage and lipid content; and al electron microscopy for lipid)."}, "[2]": {"test_system": "Hearts of Male JCR: LA-cp Rats", "test": "Parameters for Langendorf-perfused hearts: coronary flow, reactive hyperemia, bradykinin response", "format": "in vivo, rat", "details": "hearts of treated cp/cp rats; mean +/− SEM, 10 rats", "source_text": "Samples were taken from Langendorf-perfused hearts of JCR:LA-cp rats, control and arginine-treated.\nas §1, §2, §3, §6"}, "[3]": {"test_system": "Aortic Rings of JCR:LA-cp rats", "test": "Relaxant response of aortic rings to acetylcholine", "format": "in vivo, rat", "details": "treated cp/cp rats; for Maximum Relaxation: acetylcholine, rings pre-contracted with phenylephrine; for Slope: logistic curve fit, acetylcholine relaxation", "source_text": "as §1, §2, §3, §4, §5, §6"}, "JCR:LA-cp rat": {"test_system": "JCR:LA-cp rat", "source_text": "as §1, §2, §3\nAt 12 weeks of age, rats fast over the light (non-active) phase. A fasting blood sample is obtained from the tail and a standardized meal tolerance test (MTT) is performed. Following a 2-day recovery period, the rats are placed in a metabolism cage for 24 hours for the collection of urine.\nas §4, §6"}, "[4]": {"details": "human volunteer, 8 g/l solution, three one-cup servings daily for three days, third-day 24-hour urine"}, "ovariectomized rats": {"test_system": "ovariectomized rats", "details": "oral; cited from earlier work"}, "[5]": {"test_system": "subject at risk for bone loss", "details": "500 mg total per day"}, "overweight subject": {"test_system": "overweight subject", "details": "500 mg total per day, after several weeks"}, "normal rodents": {"test_system": "normal rodents", "details": "1% added to normal diet (1.8% L-Arg content); cited from earlier work"}, "postmenopausal women": {"test_system": "postmenopausal women", "details": "injection, 50 mg twice weekly, 14 months; cited from earlier work"}, "[6]": {"details": "treatment begun at 4 weeks of age, at 12 weeks, vs control group"}}, "note": "Read-outs that look alike come from different tables or passages of the source. Marks after values point to notes of the source that are not given here."}
{"molecule": "NCCCC[C@H](N)C(=O)O.O[Si](O)(O)O", "note": "[lysine silicate]", "values": [{"measurement": "intimal thickening and fragmentation of arterial elastic fibers", "setting": "rabbits", "value": "prevented"}]}
{"molecule": "N=C(N)NCCC[C@H](N)C(=O)O.O[Si](O)(O)O", "note": "[arginine silicate]", "values": [{"measurement": "Slope", "setting": "[1]", "value": "−1.01 +/− 0.17"}, {"measurement": "Maximum contraction", "setting": "[1]", "value": "1.44 ± 0.07", "unit": "g"}, {"measurement": "Bradykinin response Maximum response relative flow", "setting": "[2]", "value": "1.95 +/− 0.40"}, {"measurement": "Coronary flow", "setting": "[2]", "value": "10.8 ± 0.4", "unit": "mL/min"}, {"measurement": "Reactive hyperemia", "setting": "[2]", "value": "186 +/− 25.3* %"}, {"measurement": "Maximum Relaxation", "setting": "[3]", "value": "97.1 +/− 4.0%"}, {"measurement": "Slope", "setting": "[3]", "value": "−0.729 +/− 0.105"}, {"measurement": "bradykinin response (FIG. 1)", "setting": "JCR:LA-cp rat; coronary blood flow, FIG. 1", "value": "improved"}, {"measurement": "metabolic syndrome and cardiovascular disease (CVD) symptoms", "setting": "JCR:LA-cp rat; dietary supplementation, compared to controls", "value": "reduced"}, {"measurement": "increases in serum insulin concentration", "setting": "JCR:LA-cp rat; [6]", "value": "reduced"}, {"measurement": "increases in urinary albumin excretion", "setting": "JCR:LA-cp rat; [6]", "value": "reduced"}, {"measurement": "body weight", "setting": "JCR:LA-cp rat; vs control animals", "value": "reduction"}, {"measurement": "coronary risk lipids and lipoprotein concentrations", "setting": "JCR:LA-cp rat; vs control animals", "value": "reduction"}, {"measurement": "endothelial function", "setting": "JCR:LA-cp rat; vs control animals", "value": "improved"}, {"measurement": "gene expression and PPAR (α, γ) activity", "setting": "JCR:LA-cp rat; vs control animals", "value": "enhanced"}, {"measurement": "glomerular sclerosis", "setting": "JCR:LA-cp rat; vs control animals", "value": "decreased"}, {"measurement": "inflammatory markers", "setting": "JCR:LA-cp rat; vs control animals", "value": "decreased levels"}, {"measurement": "insulin resistance", "setting": "JCR:LA-cp rat; vs control animals", "value": "reduction"}, {"measurement": "insulin signaling pathway", "setting": "JCR:LA-cp rat; vs control animals", "value": "enhanced"}, {"measurement": "ischemic lesions", "setting": "JCR:LA-cp rat; vs control animals", "value": "reduced"}, {"measurement": "islet cell hyperplasia", "setting": "JCR:LA-cp rat; vs control animals", "value": "lower levels"}, {"measurement": "sensitivity to insulin", "setting": "JCR:LA-cp rat; vs control animals", "value": "greater"}, {"measurement": "stress induced myocardial infarct", "setting": "JCR:LA-cp rat; vs control animals", "value": "reduced"}, {"measurement": "structural remodeling (e.g., enlargement of the heart)", "setting": "JCR:LA-cp rat; vs control animals", "value": "reduced"}, {"measurement": "tolerance to glucose", "setting": "JCR:LA-cp rat; vs control animals", "value": "greater"}, {"measurement": "vascular contractility", "setting": "JCR:LA-cp rat; vs control animals", "value": "decreased"}, {"measurement": "vascular relaxation", "setting": "JCR:LA-cp rat; vs control animals", "value": "increased"}, {"measurement": "level of silica (% SiO2)", "setting": "aqueous solution 0.5 g/l", "value": 17.5, "unit": "%"}, {"measurement": "level of silica (% SiO2)", "setting": "aqueous solution 10 g/l, 1 hour", "value": 11.8, "unit": "%"}, {"measurement": "level of silica (% SiO2)", "setting": "aqueous solution 10 g/l, 2 hours", "value": 10.8, "unit": "%"}, {"measurement": "level of silica (% SiO2)", "setting": "aqueous solution 10 g/l, 24 hours", "value": 9.2, "unit": "%"}, {"measurement": "level of silica (% SiO2)", "setting": "aqueous solution 10 g/l, time 0", "value": 17.5, "unit": "%"}, {"measurement": "urinary silicon output vs baseline", "setting": "[4]", "value": "increased more than tenfold"}]}
{"molecule": "orthosilicic acid", "values": [{"measurement": "bone formation rate", "setting": "ovariectomized rats", "value": "increased"}, {"measurement": "bone turnover", "setting": "ovariectomized rats", "value": "slowed"}]}
{"molecule": "arginine silicate", "values": [{"measurement": "bone mineral density", "setting": "[5]; after several months", "value": "optimal level of bone density"}, {"measurement": "serum N-telopeptide of collagen type I and osteocalcin (markers of bone resorption and formation)", "setting": "[5]; after several weeks", "value": "returned to their normal ranges"}, {"measurement": "blood lipid concentrations (cholesterol and triglycerides)", "setting": "overweight subject", "value": "reduced"}, {"measurement": "glucose metabolism", "setting": "overweight subject", "value": "normalized"}]}
{"molecule": "Cl.N=C(N)NCCC[C@H](N)C(=O)O", "note": "[arginine HCl, reference compound]", "values": [{"measurement": "Slope", "setting": "[1]", "value": "−1.03 +/− 0.14"}, {"measurement": "Maximum contraction", "setting": "[1]", "value": "1.84 ± 0.07", "unit": "g"}, {"measurement": "Bradykinin response Maximum response relative flow", "setting": "[2]", "value": "1.48 +/− 0.55"}, {"measurement": "Coronary flow", "setting": "[2]", "value": "10.5 ± 0.3", "unit": "mL/min"}, {"measurement": "Reactive hyperemia", "setting": "[2]", "value": "170 +/− 11** %"}, {"measurement": "Maximum Relaxation", "setting": "[3]", "value": "90.4 +/− 3.5%"}, {"measurement": "Slope", "setting": "[3]", "value": "−0.673 +/− 0.093"}, {"measurement": "thymic weight", "setting": "normal rodents", "value": "increased"}]}
{"molecule": "C[Si](O)(O)O", "note": "[monomethyltrisilanol]", "values": [{"measurement": "increase of femoral density (average)", "setting": "postmenopausal women", "value": 4.7, "unit": "%"}, {"measurement": "intimal thickening and fragmentation of arterial elastic fibers", "setting": "rabbits", "value": "prevented"}]}
